{"source": "paper PMC5656836", "about": "“Distinct activation mechanisms trigger the trypanocidal activity of DNA damaging prodrugs” (Molecular Microbiology, 2017)", "key": {"[1]": {"tested_on": "bloodstream form T. brucei", "experiment": "Growth inhibition of wild type / control bloodstream form T. brucei (resazurin)", "format": "cell-based", "conditions": "for EC50: Trypanosoma brucei"}, "[2]": {"tested_on": "T. cruzi epimastigotes", "experiment": "Growth inhibition of T. cruzi epimastigotes (resazurin)", "format": "cell-based", "conditions": "for EC50: Trypanosoma cruzi, 336 h, epimastigotes, 14 days, read-out: T. cruzi EC50"}, "[3]": {"tested_on": "L. major promastigotes", "experiment": "Growth inhibition of L. major promastigotes (resazurin)", "format": "cell-based", "conditions": "for EC50: Leishmania major, 144 h, promastigotes, 6 days, read-out: L. major EC50"}, "[4]": {"tested_on": "differentiated THP‐1 cells", "experiment": "Mammalian inhibition assay, differentiated THP-1 cells", "format": "cell-based", "conditions": "Homo sapiens, 72 h; differentiated THP‐1 cells, 3 days; read-out: THP‐1 EC50"}, "[5]": {"tested_on": "mouse peritoneal macrophages", "experiment": "Toxicity to mouse peritoneal macrophages (cell counts, Giemsa)", "format": "cell-based, BALB/c mice", "conditions": "Peritoneal macrophage, 120 h, non‐cancerous primary cells, up to 5 days, read-out: EC50 towards mouse peritoneal macrophages"}, "[6]": {"tested_on": "T. brucei over expressing TbNTR (Tbntr++)", "experiment": "microbe, parasite or virus in culture", "format": "cell-based", "conditions": "for EC50: Trypanosoma brucei, read-out: EC50 Tbntr++"}, "[7]": {"tested_on": "T. brucei over expressing TbCPR2 (Tbcpr2++)", "experiment": "microbe, parasite or virus in culture", "format": "cell-based"}, "[8]": {"tested_on": "RH1^RC1 T. brucei", "experiment": "microbe, parasite or virus in culture", "format": "cell-based"}, "[9]": {"tested_on": "T. brucei Tbsnm1 null mutants (ΔTbsnm1)", "experiment": "microbe, parasite or virus in culture", "format": "cell-based", "conditions": "for EC50: Trypanosoma brucei, read-out: EC50 ΔTbsnm1"}, "[10]": {"tested_on": "ΔTbsnm1 Tbcpr2++ T. brucei", "format": "cell-based"}, "[11]": {"tested_on": "differentiated THP‐1 cells", "conditions": "read-out: THP‐1 EC50, ref Voak et al., 2013; cited from earlier work"}, "[12]": {"conditions": "Table 3, BSF T. brucei wild type, read-out: EC50 Wild type"}, "[13]": {"conditions": "Table 4, wild type T. brucei, read-out: EC50 Control"}}, "note": "Entries after “also recorded” stand apart in the source; their conditions may differ. Like-named read-outs stand apart in the source and are kept apart here.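 Wherever ratio (fold difference in EC50 between RH1^RC1 and wild type) is given: resistant clone selected by stepwise exposure to the aziridinyl benzoquinone prodrug in culture.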"}
{"smiles": "O=C1C(N2CC2)=C(N2CC2)C(=O)C(N2CC2)=C1N1CC1", "note": "[ABQ22]", "values": [{"measurement": "T. brucei SI", "setting": "[1]; Selectivity Index: fold difference in EC50 of THP‐1 line relative to parasite", "value": 1}, {"measurement": "EC50", "setting": "[1]; 72 h, bloodstream form, 3 days, Table 1, activity of some compounds previously reported (Hall et al., 2012), read-out: T. brucei EC50", "value": "148 ± 1", "unit": "nM"}, {"measurement": "EC50", "setting": "[1]; Table 2, parasites expressing wild type levels, read-out: EC50 Control", "value": "138 ± 25", "unit": "nM"}, {"measurement": "EC50", "setting": "[1]; [12]", "value": "197 ± 31", "unit": "nM"}, {"measurement": "EC50", "setting": "[1]; [13]", "value": "138 ± 25", "unit": "nM"}, {"measurement": "T. cruzi SI", "setting": "[2]", "value": 3}, {"measurement": "EC50", "setting": "[2]", "value": "55 ± 2", "unit": "nM"}, {"measurement": "L. major SI", "setting": "[3]", "value": 1}, {"measurement": "EC50", "setting": "[3]", "value": "218 ± 20", "unit": "nM"}, {"measurement": "EC50", "setting": "[4]", "value": "138 ± 25", "unit": "nM"}, {"measurement": "EC50", "setting": "[5]", "value": 120, "unit": "nM"}, {"measurement": "Fold difference in EC50 Tbntr++ relative to control", "setting": "[6]", "value": "148 ± 9 (1.07)"}, {"measurement": "EC50", "setting": "[6]", "value": 148, "unit": "nM"}, {"measurement": "Fold difference in EC50 Tbcpr2++ relative to control", "setting": "[7]", "value": "20 ± 3 (0.14 )"}, {"measurement": "Susceptibility of TbCPR2 or 3 over expressing lines relative to control cells", "setting": "[7]", "value": "hypersensitive; also recorded: sevenfold"}, {"measurement": "EC50", "setting": "[7]; Trypanosoma brucei, read-out: EC50 Tbcpr2++", "value": 20, "unit": "nM"}, {"measurement": "Susceptibility of RH1 selected (RH1^RC) lines relative to wild type", "setting": "[8]", "value": "equally sensite"}, {"measurement": "ratio (fold difference in EC50 between RH1^RC1 and wild type)", "setting": "[8]", "value": 1.2}, {"measurement": "EC50", "setting": "[8]; Trypanosoma brucei, read-out: EC50 RH1^RC1", "value": "232 ± 27", "unit": "nM"}, {"measurement": "Ratio of EC50 values ΔTbsnm1 / control", "setting": "[9]", "value": 0.15}, {"measurement": "Susceptibility of Tbsnm1 null mutants relative to wild type / control (fold more susceptible)", "setting": "[9]", "value": "sevenfold"}, {"measurement": "EC50", "setting": "[9]", "value": "21 ± 5", "unit": "nM"}, {"measurement": "Fold more sensitive, ΔTbsnm1 Tbcpr2++ versus wild type", "setting": "[10]", "value": 12.5, "unit": "fold"}]}
{"smiles": "CC1CS(=O)(=O)CCN1/N=C/c1ccc([N+](=O)[O-])o1", "note": "(stereo not shown) [Nifurtimox, reference compound]", "values": [{"measurement": "EC50", "setting": "[1]; [12]", "value": "2700 ± 100", "unit": "nM"}, {"measurement": "EC50", "setting": "[1]; [13]", "value": "2850 ± 20", "unit": "nM"}, {"measurement": "EC50", "setting": "[1]; read-out: EC50 Control", "value": "2980 ± 30", "unit": "nM"}, {"measurement": "EC50", "setting": "[2]", "value": "2600 ± 400", "unit": "nM"}, {"measurement": "EC50", "setting": "[3]", "value": "6280 ± 40", "unit": "nM"}, {"measurement": "EC50", "setting": "[6]", "value": 315, "unit": "nM"}, {"measurement": "EC50", "setting": "[9]", "value": "2250 ± 90", "unit": "nM"}, {"measurement": "EC50", "setting": "[11]", "value": "> 100000", "unit": "nM"}]}
